Test results as given in PMC5323132, “Targeting prohibitins induces apoptosis in acute myeloid leukemia cells” (Oncotarget, 2016).
pIC50: −log10 of the molar value. Values joined by “and” are separate entries in the source; they are usually repeats but may differ in a detail not shown here. Identical values can stand only once. Like-named read-outs stand apart in the source and are kept apart here.

Tests used:
U-937 cells [1] = assay: Viability by phosphatidylserine exposure (annexin V) flow cytometry; format: cell-based, human; conditions: for viability at 5 µM: Homo sapiens, read-out: Viability (%) (annexin V negative cells)
Protocol: (§1) Cell viability was assessed by phosphatidylserine exposure and measured as the percentage of annexin V-negative cell population. […] Occasionally, 3.75 μL PI were added after annexin V staining and immediately before acquisition to measure the percentage of annexin V^−/PI^− live cells. In AML samples with infiltration lower than 80% blasts, double staining with anti-CD33 or anti-CD34, and annexin V was performed. In brief, cells were washed in ABB and incubated in 50 μL ABB containing 0.5 μL anti-CD33 or anti-CD34 for 10 min in the dark and thereafter stained with annexin V, as previously mentioned. Cells were acquired using the FACSCanto^TM II flow cytometer (Becton Dickinson, Franklin Lakes, NJ, USA) and data of bulk leukemic/normal and CD33^+- or CD34^+-gated leukemic/normal progenitor cells were analyzed using the FACSDiva^TM software (Becton Dickinson). […] Patient samples were considered as “sensitive” to fluorizoline when cell viability was lower than 80% after incubation with 20 μM during 48 hours.

HL-60 cells [2] = assay: as above; format: cell-based, human; conditions: 48 hours
Protocol: (§2) Cell viability was assessed by phosphatidylserine exposure and measured as the percentage of annexin V-negative cell population. After incubation of 1.25 × 10^5 cells with the indicated factors and times, cells were then washed in annexin-binding buffer (ABB) and incubated in 100 μL ABB with 0.5 μL annexin V-APC for 10 min in the dark and then diluted with ABB to a final volume of 150 μL. Occasionally, 3.75 μL PI were added after annexin V staining and immediately before acquisition to measure the percentage of annexin V^−/PI^− live cells. In AML samples with infiltration lower than 80% blasts, double staining with anti-CD33 or anti-CD34, and annexin V was performed. In brief, cells were washed in ABB and incubated in 50 μL ABB containing 0.5 μL anti-CD33 or anti-CD34 for 10 min in the dark and thereafter stained with annexin V, as previously mentioned. Cells were acquired using the FACSCanto^TM II flow cytometer (Becton Dickinson, Franklin Lakes, NJ, USA) and data of bulk leukemic/normal and CD33^+- or CD34^+-gated leukemic/normal progenitor cells were analyzed using the FACSDiva^TM software (Becton Dickinson). Half-maximal lethal dose (LD50) was defined as the concentration of drug required to reduce the cell viability by 50%. Patient samples were considered as “sensitive” to fluorizoline when cell viability was lower than 80% after incubation with 20 μM during 48 hours.

[3] = Ex vivo viability (annexin V) of normal hematologic cells; format: cell-based, human; conditions: human, normal BMMNC and normal hematopoietic stem cells (PBSC); normal cells, 20 μM, 24 hours; read-out: viable cells (percentage of viability of untreated cells)
Protocol: (§3) Normal BMMNC was obtained from apheresis-collected granulocyte colony-stimulating factor (G-CSF)-mobilized progenitor-cell from PB of 3 healthy donors were used as a source of normal CD34^+ cells.
as §1

[4] = system: normal BMMNC and normal hematopoietic stem cells (PBSC); assay: as above; format: cell-based, human; conditions: for median LD50: normal cells
Protocol: as §3, §1

CD11b in U-937 cells = assay: Differentiation assay, CD11b surface expression by flow cytometry; format: cell-based; conditions: Homo sapiens, 48 hours, read-out: CD11b surface marker expression, fold induction compared to DMSO-treated cells
Protocol: (§4) Myeloid maturation induction was assessed by cell surface marker expression analysis. U-937 and primary AML cells were treated as indicated for cell viability assays. After 24 and 48 hours of incubation cells were collected and stained in 50 μL PBS buffer containing 2 mM EDTA and 0.5% bovine serum albumin (BSA) with 0.5 μL anti-human CD11b for 10 min in the dark and then diluted with buffer to a final volume of 150 μL. In parallel, cell viability was analyzed by annexin V staining in separated tubes. Surface expression of the antigen was analyzed by flow cytometry. In these experiments vehicle-treated cells were also included in order to discard DMSO-induced myeloid differentiation.

[5] = system: CD11b in de novo AML primary samples; assay: as above; format: cell-based; conditions: Homo sapiens, 48 hours, read-out: CD11b surface marker expression, fold induction compared to DMSO-treated cells
Protocol: as §4

[6] = system: CD34- population of AML specimens; assay: Ex vivo viability (annexin V) on CD34- population of AML specimens; format: cell-based, human; conditions: six AML specimens, 48 hours
Protocol: as §2

[7] = system: CD34+ population of AML specimens; assay: Ex vivo viability (annexin V) on CD34+ population of AML specimens; format: cell-based, human; conditions: six AML specimens, 48 hours
Protocol: as §2

U-937 cells [8] = assay: Methylcellulose colony-forming unit (CFU) assay; format: cell-based, human; conditions: pretreated 24 hours, n = 4
Protocol: (§5) The analysis of the clonogenic capacity after exposition to the fluorizoline was performed using a methylcellulose-based medium with recombinant cytokines and erythropoietin (EPO) for human hematopoietic progenitor cells (MethoCult^TM H4034 Optimum, StemCell Technologies). U-937 cells and primary AML cells were pretreated for 24 hours with the indicated factors, as previously mentioned. Then, cells (1 × 10^3 U-937 cells or 50 × 10^3 primary AML cells) were diluted in 100 μL serum-free IMDM with 25 mM HEPES, homogeneously mixed with 1 mL MethoCult^TM medium, seeded in duplicate cultures and maintained at 37°C with 5% CO2 in air in a humidified atmosphere. Colonies (CFU) were screened based on morphology and cellularity at day 10 (U-937 cells) or day 14 (primary AML cells) using an inverted microscope. A colony was defined as a cluster of > 40 cells.

primary AML cells = assay: Methylcellulose colony-forming unit (CFU) assay; format: cell-based, human; conditions: pretreated 24 hours, n = 5
Protocol: as §5

U-937 cells [9] = assay: MTT cell viability assay; format: cell-based; conditions: Homo sapiens, read-out: IC50 (half-maximal inhibitory concentration), MTT
Protocol: (§6) HL-60 and U-937 cells (1.25 × 10^5 cells/well) were incubated in the absence or in the presence of the indicated factors, in a final volume of 250 μL. After 24 or 48 hours, 25 μL MTT reagent (prepared at 5 mg/mL in phosphate-buffered saline (PBS)) was added to each well for an additional 3 hours. The blue MTT formazan precipitate was dissolved in 250 μL isopropanol:1 M HCl (24:1). Then, 100 μL of this cell lysate were plated in a 96-well plate in triplicate and the absorbance values at 570 nm were measured on a multiwell plate reader. The half-maximal inhibitory concentration (IC50) was defined as the concentration of drug required to reduce the MTT metabolization ability by 50%.

HL-60 cells [10] = assay: MTT cell viability assay; format: cell-based; conditions: Homo sapiens, read-out: IC50 (half-maximal inhibitory concentration), MTT
Protocol: as §6

NOXA mRNA in U-937 cells = assay: RT-MLPA apoptosis-related gene expression; format: cell-based; conditions: Homo sapiens
Protocol: RNA was isolated from cultured 3–5 × 10^6 cells by the RNeasy Micro kit (Qiagen GmbH, Hilden, Germany) according to the manufacturer's protocol. RNA was analyzed by RT-MLPA using SALSA MLPA KIT R011-C1 Apoptosis mRNA from MRC-Holland (Amsterdam, The Netherlands) for the simultaneous detection of 40 messenger RNA molecules, including apoptosis-related genes. In brief, RNA samples (200 ng total RNA) were first reverse transcribed using a gene-specific primer mix. The resulting cDNA was annealed overnight at 60°C to the RT-MLPA probe mix. Annealed oligonucleotides were ligated by adding Ligase-65 (MRC-Holland) and incubated at 54°C for 15 min. Ligation products were amplified by PCR (35 cycles, 30 s at 95°C; 30 s at 60°C, and 1 min at 72°C) with one unlabeled and one FAM-labeled primer. The final PCR fragments amplified were separated by capillary electrophoresis on a 96-capillary ABI-Prism® 3730XL Genetic Analyzer (Applied Biosystems/Hitachi, Carlsbad, CA, USA). Peak area and height were measured using GeneMapper^TM v3.0 analysis software (Applied Biosystems). Ratios of individual peaks relative to the sum of all peaks were calculated, resulting in the relative abundance of mRNAs of the genes of interest.

[11] = system: primary AML cells (BMMNC or PBMNC from AML patients); assay: Ex vivo viability (annexin V) of primary AML cells; format: cell-based, human
Protocol: PBMNC and BMMNC were isolated by centrifugation on a Biocoll (Biochrom AG, Berlin, Germany) gradient and cryopreserved in liquid nitrogen in the presence of 10% dimethyl sulfoxide (DMSO) (Sigma-Aldrich Inc, St Louis, MO, USA).
as §1

[12] = Figure 5C, 24 h, fluorizoline 5 μM, Q-VD-OPh 20 μM pre-incubated 30 min

CC(C)[C@H](NC(=O)c1ccc2ccccc2n1)C(=O)N[C@@H](CC(=O)O)C(=O)COc1c(F)cccc1F [Q-VD-OPh, reference compound]
Viability (%) (annexin V negative cells) (U-937 cells [1]; [12]): 95%

FC1(F)N=C(c2ccc(Cl)cc2)SC1(F)c1ccc(Cl)cc1 (centres unmarked) [fluorizoline]
LD50 (half-maximal lethal dose), annexin V (HL-60 cells [2]): 40 µM | annexin V-/PI+ population (U-937 cells [1]; 10 µM fluorizoline, 24 h, annexin V/PI double staining): less than 6% | mean LD50, annexin V (U-937 cells [1]; 24 hours): above 40 μM | mean LD50, annexin V (U-937 cells [1]; 48 hours): 14 µM | viability at 5 µM (U-937 cells [1]; Figure 5B, 5 μM, 4 h): 93% | viability at 5 µM (U-937 cells [1]; Figure 5B, 5 μM, 8 h): 92% | viability at 5 µM (U-937 cells [1]; Figure 5B, 5 μM, 24 h): 64% | viability at 5 µM (U-937 cells [1]; [12]): 63% | viability at 24 h, 20 µM [3]: 68.6% | LD50(μM) 24 h ([4]; Donor No. 1-9, 24 h): > 20 µM and 16 µM | LD50(μM) 48 h ([4]; Donor No. 1-9, 48 h): > 20 µM and 8 µM and 13 µM | median LD50 ([4]; 24 hours): above 20 μM | median LD50 ([4]; 48 hours): above 20 μM | fold induction at 40 µM (CD11b in U-937 cells): 12.1 | fold induction at 20 µM [5]: 1.5 | LD50 [6]: higher than 20 μM | LD50 [7]: 4.5 ± 2.3 µM | mean CFU respect to untreated cells (U-937 cells [8]; 5 μM): 49.9 ± 5% | mean CFU respect to untreated cells (U-937 cells [8]; 10 μM): 1.9 ± 1% | mean CFU respect to untreated cells (primary AML cells; 2.5 μM): 39.9 ± 5% | mean CFU respect to untreated cells (primary AML cells; 10 μM): 5.3 ± 1.5% | pIC50 (U-937 cells [9]; U-937, 24 h): 5.15 | pIC50 (U-937 cells [9]; U-937, 48 h): 5.30 | pIC50 (HL-60 cells [10]; HL-60, 24 h): 5.10 | pIC50 (HL-60 cells [10]; HL-60, 48 h): 5.22 | fold induction at 10 µM (NOXA mRNA in U-937 cells; 4 hours): 3.5 | fold induction at 10 µM (NOXA mRNA in U-937 cells; 8 hours): 6.6 | fold induction at 10 µM (NOXA mRNA in U-937 cells; 24 hours): 3.1 | median LD50 ([11]; 24 hours, sensitive patient samples (n = 15)): 8.0 ± 1.7 µM | mean LD50 ([11]; 48 hours, n = 21): 5.3 ± 0.8 µM | viability at 10 µM ([11]; Homo sapiens, 2 h, Figure 6B, patient #14, 10 μM, 2 h, read-out: Viability (%) (annexin V negative cells)): 95% | viability at 10 µM ([11]; Homo sapiens, 4 h, Figure 6B, patient #14, 10 μM, 4 h, read-out: Viability (%) (annexin V negative cells)): 92% | viability at 10 µM ([11]; Homo sapiens, 8 h, Figure 6B, patient #14, 10 μM, 8 h, read-out: Viability (%) (annexin V negative cells)): 87% | viability at 10 µM ([11]; Homo sapiens, 8 h, Figure 6C, patient #13, 10 μM, 8 h, read-out: Viability (%) (annexin V negative cells)): 35% | viability at 10 µM ([11]; Homo sapiens, 8 h, Figure 6C, patient #16, 10 μM, 8 h, read-out: Viability (%) (annexin V negative cells)): 50% | viability at 10 µM ([11]; Homo sapiens, 8 h, Figure 6C, patient #18, 10 μM, 8 h, read-out: Viability (%) (annexin V negative cells)): 80% | viability at 10 µM ([11]; Homo sapiens, 8 h, Figure 6C, patient #20, 10 μM, 8 h, read-out: Viability (%) (annexin V negative cells)): 43% | viability at 2.5 µM ([11]; Homo sapiens, 8 h, Figure 6C, patient #21, 2.5 μM, 8 h, read-out: Viability (%) (annexin V negative cells)): 37% | viability at 10 µM ([11]; Homo sapiens, 12 h, Figure 6B, patient #14, 10 μM, 12 h, read-out: Viability (%) (annexin V negative cells)): 81% | viability at 10 µM ([11]; Homo sapiens, 24 h, 10 μM, 24 hours, n = 20 AML samples, untreated 75.8% ± 2.9%, read-out: cell viability (annexin V negative cells)): 35.5% | viability at 10 µM ([11]; Homo sapiens, Figure 6D, patient #20, 24 h, fluorizoline 10 μM, Q-VD-OPh 20 μM pre-incubated 30 min, read-out: Viability (%) (annexin V negative cells)): 25% | median LD50 ([11]; samples at relapse (n = 6), 24 hours): 10.3 ± 4.0 µM | median LD50 ([11]; samples at relapse (n = 6), 48 hours): 5.4 ± 1.6 µM
